# System: murine leukemia P388
# Test: Antitumor effect to murine leukemia P388 (survival of implanted mice, oral dosing)
# Format: in vivo
# Settings: for Survival Rate (T/C x 100): orally once daily for 5 consecutive days, female CDF1-SLC mice, P 388 cells implanted subcutaneously
# Method: Antitumor effect to murine leukemia P388. • Test compounds: 5-FU and compound No.1 (1-(4,4-dimethyl-6-oxo-l-cyclohexenyl)methylcarbamoyl-5-fluorouracil) • Method : 1 x 10^6 leukemia P 388 cells per mouse were implanted subcutaneously to female mice (CDFl-SLC strain, 18-21 g of weight). The control and test group consisted of 3 and 1 mice respectively. The compound No.l and 5-FU were dissolved in 100% dimethylsulfoxide respectively to be adjusted to various concentrations. The solution was administered orally to each mouse once daily for 5 consecutive days, starting 24 hours after the implantation.
# Average period in days of survival in the group receiving the compound of this invention (T) and average period in days of survival in the control group (C) were determined to calculate survival rates (T/C x 100%).
smiles,measurement,setting,value
"O=c1[nH]cc(F)c(=O)[nH]1 [5-FU, 5-Fluorouracil]",Survival Rate (T/C x 100),Dose 2.7 mg/kg/inj,101%
same,Survival Rate (T/C x 100),Dose 5.3 mg/kg/inj,103%
same,Survival Rate (T/C x 100),Dose 10.5 mg/kg/inj,103%
same,Survival Rate (T/C x 100),Dose 21 mg/kg/inj,115%
same,Survival Rate (T/C x 100),Dose 42 mg/kg/inj,64.7%
same,Survival Rate (T/C x 100),Dose 84 mg/kg/inj,52.5%
"CC1(C)CC=C(CNC(=O)n2cc(F)c(=O)[nH]c2=O)C(=O)C1 [Compound No.1, 1-(4,4-dimethyl-6-oxo-l-cyclohexenyl)methylcarbamoyl-5-fluorouracil]",Survival Rate (T/C x 100),Dose 25 mg/kg/inj,115%
same,Survival Rate (T/C x 100),Dose 50 mg/kg/inj,129%
same,Survival Rate (T/C x 100),Dose 100 mg/kg/inj,151%
same,Survival Rate (T/C x 100),Dose 200 mg/kg/inj,122%
same,Survival Rate (T/C x 100),Dose 400 mg/kg/inj,71.9%
same,toxicity compared with 5-FU,"conclusion from the dose range in the P388 mouse model, oral",less toxic than 5-FU
